Measured values: the NIST ThermoML archive (doi:10.1016/j.jct.2016.01.017)
Numbers after ± are expanded uncertainties.

Experiment: activity coefficient (dimensionless); of the first substance listed, at infinite dilution; xn = mol fraction of the nth substance listed
Settings: 100 kPa, Liquid, Chromatography, x1 = 0

SMILES: C1CCCCC1 [cyclohexane] + CCCC[n+]1ccc(C#N)cc1.O=S(=O)([N-]S(=O)(=O)C(F)(F)F)C(F)(F)F
- activity coefficient (308.15 K): 17.7 ± 1.5
- activity coefficient (318.15 K): 16.3 ± 1.4
- activity coefficient (328.15 K): 15.1 ± 1.3
- activity coefficient (338.15 K): 14.2 ± 1.2
- activity coefficient (348.15 K): 13.2 ± 1.1
- activity coefficient (358.15 K): 12.4 ± 1.1
- activity coefficient (368.15 K): 11.7 ± 1

SMILES: C1=CCCCC1 [cyclohexene] + CCCC[n+]1ccc(C#N)cc1.O=S(=O)([N-]S(=O)(=O)C(F)(F)F)C(F)(F)F
- activity coefficient (308.15 K): 7.51 ± 0.65
- activity coefficient (318.15 K): 7.4 ± 0.64
- activity coefficient (328.15 K): 7.28 ± 0.63
- activity coefficient (338.15 K): 7.19 ± 0.62
- activity coefficient (348.15 K): 7.1 ± 0.61
- activity coefficient (358.15 K): 7.1 ± 0.61
- activity coefficient (368.15 K): 6.9 ± 0.6

SMILES: C1CCCCCCC1 [cyclooctane] + CCCC[n+]1ccc(C#N)cc1.O=S(=O)([N-]S(=O)(=O)C(F)(F)F)C(F)(F)F
- activity coefficient (308.15 K): 26.5 ± 2.3
- activity coefficient (318.15 K): 25.2 ± 2.2
- activity coefficient (328.15 K): 24.1 ± 2.1
- activity coefficient (338.15 K): 23.2 ± 2
- activity coefficient (348.15 K): 22.4 ± 1.9
- activity coefficient (358.15 K): 21.6 ± 1.9
- activity coefficient (368.15 K): 20.9 ± 1.8

SMILES: C1CCCC1 [cyclopentane] + CCCC[n+]1ccc(C#N)cc1.O=S(=O)([N-]S(=O)(=O)C(F)(F)F)C(F)(F)F
- activity coefficient (308.15 K): 12.7 ± 1.1
- activity coefficient (318.15 K): 11.6 ± 1
- activity coefficient (328.15 K): 10.7 ± 0.9
- activity coefficient (338.15 K): 9.97 ± 0.86
- activity coefficient (348.15 K): 9.31 ± 0.8
- activity coefficient (358.15 K): 8.69 ± 0.75
- activity coefficient (368.15 K): 8.14 ± 0.7

SMILES: CCCCCCCCCC [decane] + CCCC[n+]1ccc(C#N)cc1.O=S(=O)([N-]S(=O)(=O)C(F)(F)F)C(F)(F)F
- activity coefficient (308.15 K): 124 ± 11
- activity coefficient (318.15 K): 115 ± 10
- activity coefficient (328.15 K): 107 ± 9
- activity coefficient (338.15 K): 99.8 ± 8.6
- activity coefficient (348.15 K): 93.8 ± 8.1
- activity coefficient (358.15 K): 88.2 ± 7.6
- activity coefficient (368.15 K): 83.6 ± 7.2

SMILES: CCOCC [diethyl ether] + CCCC[n+]1ccc(C#N)cc1.O=S(=O)([N-]S(=O)(=O)C(F)(F)F)C(F)(F)F
- activity coefficient (308.15 K): 3.17 ± 0.27
- activity coefficient (318.15 K): 3.24 ± 0.28
- activity coefficient (328.15 K): 3.31 ± 0.29
- activity coefficient (338.15 K): 3.37 ± 0.29
- activity coefficient (348.15 K): 3.44 ± 0.3
- activity coefficient (358.15 K): 3.5 ± 0.3
- activity coefficient (368.15 K): 3.56 ± 0.31

SMILES: CC(C)OC(C)C [diisopropyl ether] + CCCC[n+]1ccc(C#N)cc1.O=S(=O)([N-]S(=O)(=O)C(F)(F)F)C(F)(F)F
- activity coefficient (308.15 K): 9.7 ± 0.84
- activity coefficient (318.15 K): 9.65 ± 0.83
- activity coefficient (328.15 K): 9.59 ± 0.83
- activity coefficient (338.15 K): 9.57 ± 0.83
- activity coefficient (348.15 K): 9.53 ± 0.82
- activity coefficient (358.15 K): 9.48 ± 0.82
- activity coefficient (368.15 K): 9.45 ± 0.82

SMILES: CCCOCCC [dipropyl ether] + CCCC[n+]1ccc(C#N)cc1.O=S(=O)([N-]S(=O)(=O)C(F)(F)F)C(F)(F)F
- activity coefficient (308.15 K): 8.88 ± 0.77
- activity coefficient (318.15 K): 8.84 ± 0.76
- activity coefficient (328.15 K): 8.83 ± 0.76
- activity coefficient (338.15 K): 8.78 ± 0.76
- activity coefficient (348.15 K): 8.75 ± 0.76
- activity coefficient (358.15 K): 8.73 ± 0.75
- activity coefficient (368.15 K): 8.71 ± 0.75

SMILES: CCO [ethanol] + CCCC[n+]1ccc(C#N)cc1.O=S(=O)([N-]S(=O)(=O)C(F)(F)F)C(F)(F)F
- activity coefficient (308.15 K): 1.86 ± 0.16
- activity coefficient (318.15 K): 1.74 ± 0.15
- activity coefficient (328.15 K): 1.64 ± 0.14
- activity coefficient (338.15 K): 1.55 ± 0.13
- activity coefficient (348.15 K): 1.47 ± 0.12
- activity coefficient (358.15 K): 1.39 ± 0.12
- activity coefficient (368.15 K): 1.33 ± 0.11

SMILES: CCOC(C)=O [ethyl acetate] + CCCC[n+]1ccc(C#N)cc1.O=S(=O)([N-]S(=O)(=O)C(F)(F)F)C(F)(F)F
- activity coefficient (308.15 K): 0.839 ± 0.07
- activity coefficient (318.15 K): 0.89 ± 0.074
- activity coefficient (328.15 K): 0.941 ± 0.077
- activity coefficient (338.15 K): 0.995 ± 0.082
- activity coefficient (348.15 K): 1.05 ± 0.09
- activity coefficient (358.15 K): 1.1 ± 0.09
- activity coefficient (368.15 K): 1.15 ± 0.1

SMILES: CCc1ccccc1 [ethylbenzene] + CCCC[n+]1ccc(C#N)cc1.O=S(=O)([N-]S(=O)(=O)C(F)(F)F)C(F)(F)F
- activity coefficient (308.15 K): 2.49 ± 0.21
- activity coefficient (318.15 K): 2.58 ± 0.22
- activity coefficient (328.15 K): 2.67 ± 0.23
- activity coefficient (338.15 K): 2.77 ± 0.24
- activity coefficient (348.15 K): 2.85 ± 0.25
- activity coefficient (358.15 K): 2.93 ± 0.25
- activity coefficient (368.15 K): 3.03 ± 0.26

SMILES: CCCCCCC [heptane] + CCCC[n+]1ccc(C#N)cc1.O=S(=O)([N-]S(=O)(=O)C(F)(F)F)C(F)(F)F
- activity coefficient (308.15 K): 45.8 ± 4
- activity coefficient (318.15 K): 42.5 ± 3.7
- activity coefficient (328.15 K): 39.8 ± 3.4
- activity coefficient (338.15 K): 37.4 ± 3.2
- activity coefficient (348.15 K): 35.3 ± 3.1
- activity coefficient (358.15 K): 33.5 ± 2.9
- activity coefficient (368.15 K): 31.7 ± 2.7

SMILES: C=CCCCC [hex-1-ene] + CCCC[n+]1ccc(C#N)cc1.O=S(=O)([N-]S(=O)(=O)C(F)(F)F)C(F)(F)F
- activity coefficient (308.15 K): 14.1 ± 1.2
- activity coefficient (318.15 K): 13.8 ± 1.2
- activity coefficient (328.15 K): 13.5 ± 1.2
- activity coefficient (338.15 K): 13.2 ± 1.1
- activity coefficient (348.15 K): 12.9 ± 1.1
- activity coefficient (358.15 K): 12.7 ± 1.1
- activity coefficient (368.15 K): 12.5 ± 1.1

SMILES: CCCCCC [hexane] + CCCC[n+]1ccc(C#N)cc1.O=S(=O)([N-]S(=O)(=O)C(F)(F)F)C(F)(F)F
- activity coefficient (308.15 K): 33 ± 2.9
- activity coefficient (318.15 K): 30.7 ± 2.7
- activity coefficient (328.15 K): 28.8 ± 2.5
- activity coefficient (338.15 K): 27.1 ± 2.3
- activity coefficient (348.15 K): 25.6 ± 2.2
- activity coefficient (358.15 K): 24.2 ± 2.1
- activity coefficient (368.15 K): 23.1 ± 2
